Where two headings read alike, the source gives them in different places.
Experiments:
[1] = target: T1, M1 muscarinic receptor (Rattus norvegicus, UniProt P08482); test: M1 receptor binding ([^3 H]-pirenzepine); set-up: species or system rat (male Sprague-Dawley); details: Table 1; rat brain tissue, [^3 H]PZ 0.5 nM; read-out: ^3 H-Pirenzepine M1 IC50
T1 sequence (P08482 1-460): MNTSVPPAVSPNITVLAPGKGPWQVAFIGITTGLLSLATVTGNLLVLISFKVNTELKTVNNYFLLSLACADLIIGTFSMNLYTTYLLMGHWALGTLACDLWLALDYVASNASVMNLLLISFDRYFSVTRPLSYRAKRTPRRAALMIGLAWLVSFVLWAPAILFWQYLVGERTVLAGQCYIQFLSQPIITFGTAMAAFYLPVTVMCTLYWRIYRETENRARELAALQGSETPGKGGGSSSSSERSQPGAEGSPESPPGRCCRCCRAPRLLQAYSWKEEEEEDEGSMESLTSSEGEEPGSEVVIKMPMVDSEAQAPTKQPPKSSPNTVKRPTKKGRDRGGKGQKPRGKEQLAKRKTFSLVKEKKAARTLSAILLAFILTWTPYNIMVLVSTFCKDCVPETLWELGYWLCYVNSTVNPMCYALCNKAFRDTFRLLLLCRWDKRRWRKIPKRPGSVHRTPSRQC
Description: Compounds are tested for their ability to affect M1 muscarinic binding through use of [^3 H]-pirenzepine ([^3 H]PZ) as a prototypic M1 receptor ligand. Male Sprague-Dawley (Charles River) rats are used. Dose selection is typically in the concentration range of 10^-9 to 10^-4 M. Test and reference compounds are dissolved and diluted in water or ethanol and are then added to the assay buffer. The appropriate vehicle is added to the assay buffer for control testing.
The rats (approximately 300 gm body weight) have free access to food and water and are housed in groups of four to six. On the test day, the rats are euthanized by decapitation and brain tissue is dissected and homogenized using a hand-held teflon-coated pestle, in 20 volumes of 0.32M sucrose (20 strokes at 4° C.). After centrifugation (747×g for 10 minutes at 4° C.), the resultant supernatant is decanted and recentrifuged (18677×g for 20 minutes at 4° C.). The resultant pellet is resuspended in the original volume of 0.32M sucrose and frozen. After thawing, the suspension is diluted (1:1 v/v) with 10 mM Na2 HPO4 /KH2 PO4 buffer (pH=7.4). [^3 H]PZ (0.5 nM, 0.04 μCi) is then incubated with a 100 μl sample of the tissue suspension in the above buffer (1 ml final volume, including a 10 μl sample of test compound or vehicle). […] After 60 minutes of incubation at 25° C. (in the dark), the binding is terminated by vacuum filtration onto Whatman GF/B filters (pre-soaked for 60 minutes in 0.1% (w/v) polyethylenimine to reduce non-specific binding). After three washes with the previously mentioned buffer (4° C., 3 ml/wash), the vacuum is allowed to run for two minutes before the filter-trapped radioactivity is assayed by liquid scintillation spectroscopy.
Data are presented as the percent inhibition ([control-test]/control×100%) or enhancement ([test-control]/control×100%) of [^3 H]PZ binding by the test or reference compound. The IC50 value (the drug concentration which causes a 50% inhibition of specific [^3 H]PZ binding) is calculated through the use of the EDOSE program (with probit transformation written by a person for use in STAT80). Increases in [^3 H]PZ are reported as percent increase (versus control) for a given test drug concentration.

[2] = target: T2, M2 receptors (Rattus norvegicus, UniProt P10980); test: biochemical; assay type: binding; details: read-out: ^3 H-QNB M2 IC50
T2 sequence (P10980 1-466): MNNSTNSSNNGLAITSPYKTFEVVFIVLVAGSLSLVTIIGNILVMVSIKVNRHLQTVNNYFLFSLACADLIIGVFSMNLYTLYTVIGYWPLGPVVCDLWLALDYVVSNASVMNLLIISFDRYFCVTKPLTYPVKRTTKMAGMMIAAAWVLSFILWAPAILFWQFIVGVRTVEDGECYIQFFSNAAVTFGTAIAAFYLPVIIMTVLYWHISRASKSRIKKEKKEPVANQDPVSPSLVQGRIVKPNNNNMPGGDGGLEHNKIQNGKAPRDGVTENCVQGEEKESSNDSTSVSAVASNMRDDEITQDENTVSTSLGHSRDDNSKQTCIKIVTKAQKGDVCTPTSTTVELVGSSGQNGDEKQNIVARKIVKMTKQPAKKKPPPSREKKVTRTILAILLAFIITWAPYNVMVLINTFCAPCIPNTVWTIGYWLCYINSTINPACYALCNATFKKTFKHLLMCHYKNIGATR

[3] = test system: M2 receptors; test: biochemical; assay type: binding; details: Table 1; ratio of M2 IC50 to M1 IC50
[4] = test system: scopolamine-induced hyperactivity, a proposed muscarinic M1 -mediated effect; test: Scopolamine-induced hyperactivity (locomotor activity); assay type: in vivo, rat; set-up: Total activity: unit not given here
Description: Compounds were evaluated for the ability to attenuate scopolamine-induced hyperactivity, a proposed muscarinic M1 -mediated effect. Animals were permitted to habituate for 30 minutes in locomotor activity chambers (Digiscan, Omnitech; Columbus, Ohio) in which infrared detectors were used to measure movement in 3 axes. The animals were then injected i.p. with vehicle alone, scopolamine alone (1.7 mg/kg) or both scopolamine and one dose of the test compound. Animals were then replaced in the chambers and locomotor activity was measured for an additional 1 hour period. Total activity measures (vertical+horizintal movements) were collected and statistically analyzed in four 15 minute periods.

[5] = test system: Scopolamine-impaired Radial Arm Maze; test: Scopolamine-impaired Radial Arm Maze; assay type: in vivo, rat (male Sprague-Dawley)
Source text: Male Sprague-Dawley (Charles River) rats on a 23-hour food deprivation schedule were trained in an eight arm radial maze with all arms baited. Each session consisted of two maze exposures, with a time limit of 300 seconds for each exposure. After four correct choices (first exposure), each animal was removed from the maze for one hour, then returned with only the remaining four arms baited (second exposure). Choice errors, consisting of delay errors (re-entry into any of the four arms chosen during the first exposure) and current errors (re-entry into any of the four arms chosen during the second exposure), as well as total errors were recorded. Durations for each exposure were also recorded. Statistical analysis was performed using a one-way ANOVA with Dunnett's t-test comparisons. Scopolamine (0.3 mg/kg, S.C.) and the compound of Example 1 (3,10 mg/kg, I.P,.) were administrered simultaneously 30 minutes prior to the test. All compounds were solubilized in phosphate buffered saline.

[6] = test system: scopolamine-induced memory loss; details: cited from earlier work
[7] = test system: memory loss; details: cat, rat, and monkey; muscarinic antagonist; cited from earlier work
[8] = test system: scopolamine-induced memory loss; details: rats; cited from earlier work
[9] = test system: Alzheimer's patients and healthy elderly patients; details: cited from earlier work; for clinical efficacy: human, in vivo
[10] = test system: scopolamine-induced memory loss; details: monkeys; cited from earlier work
[11] = scopolamine + Example 1 3.0 mg/kg I.P., N=11
[12] = scopolamine + Example 1 10.0 mg/kg I.P., N=12
[13] = scopolamine alone 0.3 mg/kg S.C., N=12

Molecule: Cc1cc(NCCCN2CCOCC2)nc2ccccc12 [Example 1, 4-Methyl-N-[3-(4-morpholinyl)propyl]-2-quinolinamine (E)-2-butenedioate 1:1 hydrate]
- IC50 [1]: 1.2 µM
- IC50 [2]: 69.3 µM
- M2/M1 [3]: 58
- attenuation of scopolamine hyperactivity ([4]; 30 and 54 mg/kg i.p., 30 and 45 minutes post-injection): produced an attenuation at 30 and 45 minutes post-injection that did not differ from the scopolamine-or vehicle-only controls
- minimal effective dose ([4]; Rattus norvegicus, ip, attenuation of scopolamine (1.7 mg/kg) hyperactivity, i.p., read-out: minimum effective dose): 30 mg/kg
- in vivo M1 agonist activity, less effective than oxotremorine ([4]; relative to oxotremorine): 100 fold
- Total activity ([4]; scopolamine + Example 1 30 mg/kg i.p., 15 min, N=10): 3792
- Total activity ([4]; scopolamine + Example 1 30 mg/kg i.p., 30 min, N=10): 2069
- Total activity ([4]; scopolamine + Example 1 30 mg/kg i.p., 45 min, N=10): 1839
- Total activity ([4]; scopolamine + Example 1 30 mg/kg i.p., 60 min, N=10): 1697
- Total activity ([4]; scopolamine + Example 1 54 mg/kg i.p., 15 min, N=10): 3602
- Total activity ([4]; scopolamine + Example 1 54 mg/kg i.p., 30 min, N=10): 1899
- Total activity ([4]; scopolamine + Example 1 54 mg/kg i.p., 45 min, N=10): 1722
- Total activity ([4]; scopolamine + Example 1 54 mg/kg i.p., 60 min, N=10): 1535
- effect on scopolamine impairment ([5]; 3.0 mg/kg I.P.): non-significantly reduced this scoplamine impairment
- effect on scopolamine impairment ([5]; 10 mg/kg I.P.): had no effect
- effect on increased time measures caused by scopolamine ([5]; 3, 10 mg/kg I.P.): largely unaffected
- cognitive impairments seen after scopolamine treatment (conclusion) ([5]; rat, in vivo): can reduce the cognitive impairments seen after scopolamine treatment
- Mean Error, Current [5, 11]: 0.55
- Mean Error, Delay [5, 11]: 1.77
- Mean Error, Total [5, 11]: 1.14
- Mean Time 1.4 [5, 11]: 90.10 s
- Mean Time 5- [5, 11]: 121.73 s
- Mean Time Total [5, 11]: 105.91 s
- Mean Error, Current [5, 12]: 0.33
- Mean Error, Delay [5, 12]: 2.75
- Mean Error, Total [5, 12]: 1.54
- Mean Time 1.4 [5, 12]: 113.8 s
- Mean Time 5- [5, 12]: 148.1 s
- Mean Time Total [5, 12]: 130.92 s

Molecule: CN1[C@@H]2C[C@@H](OC(=O)[C@H](CO)c3ccccc3)C[C@H]1[C@@H]1O[C@@H]12 [Scopolamine]
- effect on total activity ([4]; scopolamine 1.7 mg/kg, 15, 30, 45 and 60 minutes post-injection): significantly elevated total activity at all four time points
- Total activity ([4]; scopolamine alone 1.7 mg/kg i.p., first experiment (Example 1), 15 min, N=9): 4349
- Total activity ([4]; scopolamine alone 1.7 mg/kg i.p., first experiment (Example 1), 30 min, N=9): 2816
- Total activity ([4]; scopolamine alone 1.7 mg/kg i.p., first experiment (Example 1), 45 min, N=9): 2638
- Total activity ([4]; scopolamine alone 1.7 mg/kg i.p., first experiment (Example 1), 60 min, N=9): 1858
- Total activity ([4]; scopolamine alone 1.7 mg/kg i.p., second experiment (oxotremorine), 15 min, N=9): 5486
- Total activity ([4]; scopolamine alone 1.7 mg/kg i.p., second experiment (oxotremorine), 30 min, N=9): 4720
- Total activity ([4]; scopolamine alone 1.7 mg/kg i.p., second experiment (oxotremorine), 45 min, N=9): 3718
- Total activity ([4]; scopolamine alone 1.7 mg/kg i.p., second experiment (oxotremorine), 60 min, N=9): 3510
- effect on delay and total errors ([5]; scopolamine 0.3 mg/kg S.C., compared to vehicle): produced a significant impairment in both delay and total errors
- Mean Error, Current [5, 13]: 1.0
- Mean Error, Delay [5, 13]: 2.80
- Mean Error, Total [5, 13]: 1.90
- Mean Time 1.4 [5, 13]: 87.25 s
- Mean Time 5- [5, 13]: 169.80 s
- Mean Time Total [5, 13]: 128.50 s
- memory loss in normal humans ([6]; muscarinic antagonist): can be artificially induced
- memory loss in animals [7]: can be artificially induced

Molecule: COC(=O)C1=CCCN(C)C1 [arecoline]
- reversal of scopolamine-induced deficit [8]: can be reversed
- clinical efficacy [9]: neither physostigmine nor arecoline have clinical efficacy due to undesirable side-effects, a short duration of action and a narrow active dose range

Molecule: CNC(=O)Oc1ccc2c(c1)[C@]1(C)CCN(C)[C@@H]1N2C [physostigmine]
- reversal of scopolamine-induced deficit ([6]; humans): can be reversed
- reversal of scopolamine-induced deficit [10]: can be reversed
- clinical efficacy [9]: neither physostigmine nor arecoline have clinical efficacy due to undesirable side-effects, a short duration of action and a narrow active dose range

Molecule: lecithin
- improvement on cognitive tests ([9]; Alzheimer's patients and healthy elderly patients): No significant improvement was observed on any cognitive test
